The source of these data is the supplement of paper PMC10307832.

Common to all, as to assay: relative viability (nuclei count vs DMSO), 5 days (fraction); higher = more cells survive
Compound in test [1]: C[C@]12O[C@H](C[C@]1(O)CO)n1c3ccccc3c3c4c(c5c6ccccc6n2c5c31)CNC4=O [Lestaurtinib] + CC(=O)Nc1cccc(-n2c(=O)n(C3CC3)c(=O)c3c(Nc4ccc(I)cc4F)n(C)c(=O)c(C)c32)c1 [Trametinib] (partner 0.02 µM)
An outline of the steps: (§1)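 Lung cancer cell lines in 1536-well plates got either a single drug or a fixed anchor-drug dose together with five library-drug doses (not always all listed) in √10 steps, by pin tool, on the day after seeding. Nuclei were counted after 5 days, and relative viability is the treated-to-vehicle ratio of nuclei counts. Values are medians of duplicate plates.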

Compound in test [2]: C[C@]12O[C@H](C[C@]1(O)CO)n1c3ccccc3c3c4c(c5c6ccccc6n2c5c31)CNC4=O [Lestaurtinib] + Cc1nc(NC(=O)N2CCC[C@H]2C(N)=O)sc1-c1ccnc(C(C)(C)C(F)(F)F)c1 [Alpelisib] (partner 2 µM)
Put shortly: as §1

Compound in test [3]: C1=CC(=CC=C1C2=CC(=C(S2)NC(=O)N)C(=O)N)F [TPCA-1] + CCNC(=O)c1noc(-c2cc(C(C)C)c(O)cc2O)c1-c1ccc(CN2CCOCC2)cc1 [Luminespib] (partner 0.01 µM)
Put shortly:
as §1

Compound in test [4]: C1/C(=C\C2=CC=CS2)/C(=O)/C(=C/C3=CC=CS3)/C1 + CC(=O)Nc1cccc(-n2c(=O)n(C3CC3)c(=O)c3c(Nc4ccc(I)cc4F)n(C)c(=O)c(C)c32)c1 [Trametinib] (partner 0.02 µM)
Put shortly: as §1

Turning to UMC-11, the relative viability in test [1] (first compound 0.005 µM) is 0.746; in test [1] (first compound 0.01581 µM), 0.6; in test [1] (first compound 0.05 µM) it was 0.601; in test [1] (first compound 0.1581 µM) it was 0.311; in test [1] (first compound 0.5 µM), 0.155; in test [2] (first compound 0.005 µM) it was 0.967. The relative viability in test [2] (first compound 0.01581 µM) was determined as 0.968; in test [2] (first compound 0.05 µM), 0.471; in test [2] (first compound 0.1581 µM), 0.297; in test [2] (first compound 0.5 µM), 0.156; in test [3] (first compound 0.04 µM), 1.18; in test [3] (first compound 0.1265 µM), 0.914. Moreover, the relative viability was determined as 1.09 in test [3] (first compound 0.4 µM); 0.957 in test [3] (first compound 1.265 µM); 0.684 in test [3] (first compound 4 µM); 0.69 in test [4] (first compound 0.2 µM); 0.737 in test [4] (first compound 0.6325 µM); 0.675 in test [4] (first compound 2 µM). Moreover, the relative viability was 0.671 in test [4] (first compound 6.325 µM) and 0.715 in test [4] (first compound 20 µM).
